Results on two molecules are retold here after patent US11654198B2, “Application of combination of polyethylene glycol and local anesthetic in non-narcotic analgesia” (JENKEM TECHNOLOGY CO., LTD. (TIANJIN), priority 2016, dated 2023).

The nature of series [1]: PEG-bupivacaine conjugate hydrolysis drug release in pH 7.4 PBS buffer (Example 29). The following applies: 37° C., about 2 mg/mL. The series is classed as physicochemical. On the procedure: Preparation of isotonic phosphate buffer (0.01 mol/L, pH 7.4, PBS): 8.0 g of NaCl, 0.2 g of KH2PO4, 2.9 g of Na2HPO4.12H2O and 0.2 g of KCl are added sequentially to a quantitative container, and an appropriate amount of distilled water is added to dissolve, and then the volume is adjusted to 1000 mL and the obtained buffer is stored in a refrigerator at 4° C. for use.
Hydrolysis drug release for the PEG-bupivacaine conjugate: PEG-bupivacaine products (bupivacaine conjugate 6, prepared in Example 9 of the present invention; bupivacaine conjugate 10, prepared in Example 16 of the present invention) are dissolved in PBS buffer at about 2 mg/mL and placed in a water-bathing constant temperature vibrator at 37° C. Samples are taken at 0 h, 6 h, 12 h, 24 h, 48 h, 72 h, 96 h, 120 h and 144 h, and the content of free bupivacaine is determined by HPLC.

Series [2] has as its system experimental animals. In words: Duration of non-anesthetic analgesic effect (statement in background). The format is in vivo. The following applies: single dose.
Series [3] concerns SD rats. In words: Sensory block, hot plate paw withdrawal time, bupivacaine minimum/maximum analgesic dose test (Example 28). The format is in vivo, rat. The text has this:
1.3 Test substance: bupivacaine injection, diluted with physiological saline to the target concentration; the reference substance is physiological saline.
After the animals are anesthetized by intraperitoneal injection of 10% chloral hydrate solution, the sciatic nerve is exposed to the biceps and gluteus maximus joints of the hind limbs through surgery, and silicone flexible catheters of the same length (7 cm) are placed around the sciatic nerve. the other ends of the catheters are subcutaneously embedded in the back of the rat, and then sutured and fixed, and 0.2 mL of an antibiotic solution (5,000 U/ml penicillin G) is injected for anti-inflammatory.
After 2-3 days of catheterization, the SD rats with the body weight of 230-250 g and into which catheters are embedded are screened before the experiment by a hot plate method. The hot plate is heated to (56±1)° C., one of the hind paws of the rat is placed on the hot plate, and the other hind paw is placed in the laboratory room temperature condition, and the tested paw withdrawal time is observed and recorded. The average value of three times measured is recorded as a basic pain threshold.
Twenty-four qualified rats (animals with no dyskinesia and pain threshold change after catheterization) are randomly divided into 6 groups, 4 rats in each group, the first group is a control group, the experimental animals are administered with normal saline, and the other groups are administered with different doses of bupivacaine injection. Each group is injected with a corresponding drug through the catheter around the sciatic nerve.
The sensory block of the rats is examined by a hot plate method. The hot plate is heated to (56±1)° C., one of the hind paws of the rat is placed on the hot plate, and the other hind paw is placed at room temperature in the laboratory, the tested paw withdrawal time is observed and recorded. The average value of two to three times is recorded as a pain threshold. The paw withdrawal time of the hot plate method is recorded. In order to avoid the damage of the experimental animal body, if the rat has not withdrawal paw in the hot plate experiment for more than 15 s, the rat should be removed from the hot plate, and the experimental result is recorded as 15 s. The time point for determining the paw withdrawal time of the hot plate is before administration, and 5 minutes, 10 minutes, 30 minutes, 1 hour, and 2 hours after administration.

Consider “8-Arm-PEG-Bupivacaine, 20K [bupivacaine conjugate 10]”, for which the PEG-bupivacaine hydrolysis rate is 0.43% in series [1] (0 h); 15.03% in series [1] (6 h); 25.19% in series [1] (12 h); 40.37% in series [1] (24 h); 61.72% in series [1] (48 h); 76.25% in series [1] (72 h). The figures for the PEG-bupivacaine hydrolysis rate in series [1] (96 h), in series [1] (120 h) and in series [1] (144 h) were 87.28%, 92.76% and 96.13%, respectively.

As to `CCCCN1CCCCC1C(=O)Nc1c(C)cccc1C` (stereo not shown) [bupivacaine], the “time the non-anesthetic analgesic effect is maintained” value in series [2] is given as “at most 1 hour”. For the same molecule, the “hot plate paw withdrawal time” value in series [3] (group 2, 3 mg/kg (0.66 mg/rat) trans-catheter, 0 min (before administration)) came out at 3.26 ± 0.88 s; in series [3] (group 2, 3 mg/kg (0.66 mg/rat) trans-catheter, 5 min), 6.32 ± 2.29 s; in series [3] (group 2, 3 mg/kg (0.66 mg/rat) trans-catheter, 10 min), 7.7 ± 3.88 s; in series [3] (group 2, 3 mg/kg (0.66 mg/rat) trans-catheter, 30 min), 7.85 ± 3.36 s; in series [3] (group 2, 3 mg/kg (0.66 mg/rat) trans-catheter, 60 min) it was 5.91 ± 1.9 s; in series [3] (group 2, 3 mg/kg (0.66 mg/rat) trans-catheter, 120 min), 4.26 ± 1.42 s. Besides, the “hot plate paw withdrawal time” value in series [3] (group 3, 1 mg/kg (0.22 mg/rat) trans-catheter, 0 min (before administration)) stood at 2.75 ± 0.74 s; in series [3] (group 3, 1 mg/kg (0.22 mg/rat) trans-catheter, 5 min) it was 5.17 ± 5.41 s; in series [3] (group 3, 1 mg/kg (0.22 mg/rat) trans-catheter, 10 min) it was 7.13 ± 5.43 s; in series [3] (group 3, 1 mg/kg (0.22 mg/rat) trans-catheter, 30 min), 7.13 ± 4.01 s; in series [3] (group 3, 1 mg/kg (0.22 mg/rat) trans-catheter, 60 min), 3.24 ± 0.85 s; in series [3] (group 3, 1 mg/kg (0.22 mg/rat) trans-catheter, 120 min), 2.13 ± 0.8 s. Besides, the “hot plate paw withdrawal time” value in series [3] (group 4, 0.3 mg/kg (0.066 mg/rat) trans-catheter, 0 min (before administration)) was determined as 3.42 ± 0.87 s; in series [3] (group 4, 0.3 mg/kg (0.066 mg/rat) trans-catheter, 5 min), 6.08 ± 1.68 s; in series [3] (group 4, 0.3 mg/kg (0.066 mg/rat) trans-catheter, 10 min), 7.11 ± 2.55 s; in series [3] (group 4, 0.3 mg/kg (0.066 mg/rat) trans-catheter, 30 min) it was 7.09 ± 1.45 s; in series [3] (group 4, 0.3 mg/kg (0.066 mg/rat) trans-catheter, 60 min), 3.62 ± 1.25 s; in series [3] (group 4, 0.3 mg/kg (0.066 mg/rat) trans-catheter, 120 min) it was 3.76 ± 0.69 s. Besides, the “hot plate paw withdrawal time” value in series [3] (group 5, 0.1 mg/kg (0.022 mg/rat) trans-catheter, 0 min (before administration)) was found to be 3.08 ± 0.61 s; in series [3] (group 5, 0.1 mg/kg (0.022 mg/rat) trans-catheter, 5 min) it was 4.41 ± 3.24 s; in series [3] (group 5, 0.1 mg/kg (0.022 mg/rat) trans-catheter, 10 min), 4.22 ± 2.45 s; in series [3] (group 5, 0.1 mg/kg (0.022 mg/rat) trans-catheter, 30 min), 3.59 ± 1.89 s; in series [3] (group 5, 0.1 mg/kg (0.022 mg/rat) trans-catheter, 60 min), 2.63 ± 0.41 s; in series [3] (group 5, 0.1 mg/kg (0.022 mg/rat) trans-catheter, 120 min), 2.96 ± 1.38 s. Also, the “hot plate paw withdrawal time” value came to 3.06 ± 1.1 s in series [3] (group 6, 0.03 mg/kg (0.0066 mg/rat) trans-catheter, 0 min (before administration)); 3.36 ± 0.91 s in series [3] (group 6, 0.03 mg/kg (0.0066 mg/rat) trans-catheter, 5 min); 2.67 ± 0.6 s in series [3] (group 6, 0.03 mg/kg (0.0066 mg/rat) trans-catheter, 10 min); 3.11 ± 1.22 s in series [3] (group 6, 0.03 mg/kg (0.0066 mg/rat) trans-catheter, 30 min); 2.66 ± 0.53 s in series [3] (group 6, 0.03 mg/kg (0.0066 mg/rat) trans-catheter, 60 min); 3.09 ± 0.82 s in series [3] (group 6, 0.03 mg/kg (0.0066 mg/rat) trans-catheter, 120 min).
